Earlier results, collected in patent US8409610B2, “Wound care device” (Coloplast A/S, priority 2003, dated 2013).

Conditions: reported values, given as examples

| Structure (SMILES) | minimum plasma concentration for obtaining systemic effect |
| --- | --- |
| CC(=O)Oc1ccccc1C(=O)O [Acetylsalicylic acid] | 270 µg/mL |
| CC(C)Cc1ccc(C(C)C(=O)O)cc1 (stereo not shown) [Ibuprofen] | 10 µg/mL |
| CN1C(C(=O)Nc2ccccn2)=C(O)c2ccccc2S1(=O)=O [Piroxicam] | 1 µg/mL |
| CC(C(=O)O)c1cccc(C(=O)c2ccccc2)c1 (stereo not shown) [Ketoprofen] | 3 µg/mL |
